Source: US20050164331A1, “Method and device for detecting toxic material in water using microbial fuel cell” (priority 2002, published 2005)
Read-outs that look alike come from different tables or passages of the source.

Columns and labels:
[1] = tested on: electrochemically active bacteria in the sludge
Text: The sample enters into the anode part after passing through the first and the second pretreatment tanks(2,3). The anode part is composed of a carbon felt and platinum(Pt) wire, while its inside part is filled usually with a microorganism catalyst which generates electrochemical energy using organic raw material. The cathode part is filled with ordinary water. Namely, the sample containing organic materials enters into the anode and the water-saturated with air enters the cathode. Now the organic materials are decomposed by microorganism at the anode part of the fuel cell and a current is generated. The current moves along the Pt wire and is measured by the voltmeter.
Active sludge was introduced into the anode part so that the electrochemically active bacteria in the sludge are attached to the electrode and densely cultured. To the cathode part, water saturated with air was incorporated, keeping a certain potential difference so as to make an efficient biological electrochemical reaction occur in the microbial fuel cell. Into this microbial fuel cell, added were glucose and glutamic acid(CODcr 200 ppm, which means the chemical oxygen demand due to the potassium dichromate) as fuel and the generated current was measured by the volt meter(2000 multimeter, Keithley Instrument. Inc, USA) at 60 seconds interval, while adding to the used fuel cell, Cr^6+ standard solution successively in the concentration of 0.01 ppm, 0.02 ppm, 0.03 ppm, 0.04 ppm and 0.05 ppm.

[2] = tested on: golden dace; conditions: 8 ppm phenol introduced to water; cited from earlier work
[3] = microbial fuel cell with active sludge, fuel glucose and glutamic acid (CODcr 200 ppm), standard solution added successively at 0.01-0.05 ppm, current measured at 60 seconds interval

[Cr+6] [Cr^6+]
concentration at which the constantly generated current showed a sharp drop [1, 3]: 0.04 ppm

[Pb] [Pb, lead]
concentration at which the constantly generated current showed a sharp drop [1, 3]: 0.04 ppm

Oc1ccccc1 [phenol]
time required to determine the toxicity using fish [2]: 8 h | concentration at which the constantly generated current showed a sharp drop [1]: 0.03 ppm
